pIC50: −log10 of the molar value.
What was measured:
[1] = molecular target: T1, human G9a enzyme (Homo sapiens, UniProt Q96KQ7); assay: G9a enzyme activity assay (TR-FRET); type: biochemical; conditions: 1 hour at room temperature
T1 construct: purchased BPS Biosciences 51001; host or cells: baculovirus infected Sf9 cells
T1 sequence (Q96KQ7 1-1210): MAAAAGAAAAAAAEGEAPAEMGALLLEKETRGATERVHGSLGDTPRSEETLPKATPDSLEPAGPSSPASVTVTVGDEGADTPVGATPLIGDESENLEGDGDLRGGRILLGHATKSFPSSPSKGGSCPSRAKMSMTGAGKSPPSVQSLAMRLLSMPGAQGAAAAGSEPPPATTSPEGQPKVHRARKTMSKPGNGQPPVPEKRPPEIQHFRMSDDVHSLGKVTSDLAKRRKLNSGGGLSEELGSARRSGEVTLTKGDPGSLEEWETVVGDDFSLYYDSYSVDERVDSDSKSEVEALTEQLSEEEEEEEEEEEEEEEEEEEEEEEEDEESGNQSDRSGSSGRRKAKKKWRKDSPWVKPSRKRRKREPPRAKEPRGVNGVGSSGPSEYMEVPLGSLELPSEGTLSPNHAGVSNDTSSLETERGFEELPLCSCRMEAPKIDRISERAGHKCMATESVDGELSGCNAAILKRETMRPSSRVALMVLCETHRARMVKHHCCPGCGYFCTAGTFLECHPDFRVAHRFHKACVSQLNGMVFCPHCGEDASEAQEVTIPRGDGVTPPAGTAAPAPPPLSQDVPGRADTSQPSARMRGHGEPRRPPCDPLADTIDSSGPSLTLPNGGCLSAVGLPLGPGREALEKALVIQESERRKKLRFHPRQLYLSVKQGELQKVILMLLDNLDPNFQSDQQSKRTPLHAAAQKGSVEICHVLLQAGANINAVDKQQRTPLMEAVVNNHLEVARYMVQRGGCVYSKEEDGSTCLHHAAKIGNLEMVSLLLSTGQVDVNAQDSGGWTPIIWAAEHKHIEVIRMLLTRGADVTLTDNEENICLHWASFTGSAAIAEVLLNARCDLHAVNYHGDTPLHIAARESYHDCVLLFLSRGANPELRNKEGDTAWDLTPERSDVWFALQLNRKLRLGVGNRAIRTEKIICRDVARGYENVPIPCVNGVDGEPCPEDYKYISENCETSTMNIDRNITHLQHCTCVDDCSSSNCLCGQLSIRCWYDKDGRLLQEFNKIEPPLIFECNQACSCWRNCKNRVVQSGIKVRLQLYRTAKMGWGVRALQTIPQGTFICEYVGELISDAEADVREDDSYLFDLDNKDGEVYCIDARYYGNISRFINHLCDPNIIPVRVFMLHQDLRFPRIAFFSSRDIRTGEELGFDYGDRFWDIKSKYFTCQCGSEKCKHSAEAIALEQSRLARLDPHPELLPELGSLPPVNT
Method: G9a Enzyme Activity Assay
The biochemical assay to measure G9a enzyme activity relies on time-resolved fluorescence energy transfer (TR-FRET) between europium cryptate (donor) and XL665 (acceptor). […] The human G9a enzyme expressed in a baculovirus infected Sf9 cell expression system was obtained from BPS Biosciences (Cat. #51001). Enzyme activity assay was carried out in a white 384-well plate in a final volume of 20 μl, as follow: • 4 μl of vehicle or studied compound 2.5× concentrated prepared in assay buffer (50 mM Tris-HCl, 10 mM NaCl, 4 mM DTT, 0.01% Tween-20 pH9). Final percentage of DMSO was 0.5%. • 2 μl of 1 nM G9a enzyme diluted in assay buffer. […] Final concentration 150 nM. • Then, add 5 μl of streptavidin XL665 beads. Final concentration of 16 μM. • Read the plate after 1 hour of incubation at room temperature.
(§1) For each well, fluorescence was measured at 620 nm and 665 nm. A ratio (665 nm/620 nm) was then calculated in order to minimize medium interferences. Positive control was obtained in the presence of the vehicle of the compounds. Negative control was obtained in the absence of G9a enzyme activity. Calculated IC50 values were determined using GraphPrism using 4-parameters inhibition curve.

[2] = molecular target: T2, human DNMT1 (Homo sapiens, UniProt P26358); assay: DNMT1 enzyme activity assay (TR-FRET, EPIgeneous methyltransferase assay); type: biochemical; conditions: human DNMT1, 15 minutes at 37° C.
T2 construct: purchased Reaction Biology Corp. DMT-21-124
Method: DNMT1 Enzyme Activity Assay
The biochemical assay to measure DNMT1 enzyme activity relies on time-resolved fluorescence energy transfer (TR-FRET) between lumi4-Tb (donor) and d2 (acceptor) using the EPIgeneous methyltransferase assay (CisBio Cat#62SAHPEB). […] TR-FRET signal is inversely proportional to the concentration of SAH, product of DNMT1 enzyme activity, in the sample. The human DNMT1 was obtained from Reaction Biology Corp. (Cat# DMT-21-124).
Enzyme activity assay was carried out in a white 384-well plate in a final volume of 20 μl, as follow: • 4 μl of vehicle or studied compound 2.5× concentrated prepared in assay buffer (50 mM Tris-HCl, 1 mM EDTA, 1 mM DTT, 0.1% Triton X-100, 5% glycerol pH 7.5). Final percentage of DMSO was 0.5%. • 2 μl of 1 nM DNMT1 enzyme diluted in assay buffer.
as §1, with “compounds.” for “compounds. Negative control was obtained in the absence of G9a enzyme activity.”

T2 sequence (P26358 whole entry): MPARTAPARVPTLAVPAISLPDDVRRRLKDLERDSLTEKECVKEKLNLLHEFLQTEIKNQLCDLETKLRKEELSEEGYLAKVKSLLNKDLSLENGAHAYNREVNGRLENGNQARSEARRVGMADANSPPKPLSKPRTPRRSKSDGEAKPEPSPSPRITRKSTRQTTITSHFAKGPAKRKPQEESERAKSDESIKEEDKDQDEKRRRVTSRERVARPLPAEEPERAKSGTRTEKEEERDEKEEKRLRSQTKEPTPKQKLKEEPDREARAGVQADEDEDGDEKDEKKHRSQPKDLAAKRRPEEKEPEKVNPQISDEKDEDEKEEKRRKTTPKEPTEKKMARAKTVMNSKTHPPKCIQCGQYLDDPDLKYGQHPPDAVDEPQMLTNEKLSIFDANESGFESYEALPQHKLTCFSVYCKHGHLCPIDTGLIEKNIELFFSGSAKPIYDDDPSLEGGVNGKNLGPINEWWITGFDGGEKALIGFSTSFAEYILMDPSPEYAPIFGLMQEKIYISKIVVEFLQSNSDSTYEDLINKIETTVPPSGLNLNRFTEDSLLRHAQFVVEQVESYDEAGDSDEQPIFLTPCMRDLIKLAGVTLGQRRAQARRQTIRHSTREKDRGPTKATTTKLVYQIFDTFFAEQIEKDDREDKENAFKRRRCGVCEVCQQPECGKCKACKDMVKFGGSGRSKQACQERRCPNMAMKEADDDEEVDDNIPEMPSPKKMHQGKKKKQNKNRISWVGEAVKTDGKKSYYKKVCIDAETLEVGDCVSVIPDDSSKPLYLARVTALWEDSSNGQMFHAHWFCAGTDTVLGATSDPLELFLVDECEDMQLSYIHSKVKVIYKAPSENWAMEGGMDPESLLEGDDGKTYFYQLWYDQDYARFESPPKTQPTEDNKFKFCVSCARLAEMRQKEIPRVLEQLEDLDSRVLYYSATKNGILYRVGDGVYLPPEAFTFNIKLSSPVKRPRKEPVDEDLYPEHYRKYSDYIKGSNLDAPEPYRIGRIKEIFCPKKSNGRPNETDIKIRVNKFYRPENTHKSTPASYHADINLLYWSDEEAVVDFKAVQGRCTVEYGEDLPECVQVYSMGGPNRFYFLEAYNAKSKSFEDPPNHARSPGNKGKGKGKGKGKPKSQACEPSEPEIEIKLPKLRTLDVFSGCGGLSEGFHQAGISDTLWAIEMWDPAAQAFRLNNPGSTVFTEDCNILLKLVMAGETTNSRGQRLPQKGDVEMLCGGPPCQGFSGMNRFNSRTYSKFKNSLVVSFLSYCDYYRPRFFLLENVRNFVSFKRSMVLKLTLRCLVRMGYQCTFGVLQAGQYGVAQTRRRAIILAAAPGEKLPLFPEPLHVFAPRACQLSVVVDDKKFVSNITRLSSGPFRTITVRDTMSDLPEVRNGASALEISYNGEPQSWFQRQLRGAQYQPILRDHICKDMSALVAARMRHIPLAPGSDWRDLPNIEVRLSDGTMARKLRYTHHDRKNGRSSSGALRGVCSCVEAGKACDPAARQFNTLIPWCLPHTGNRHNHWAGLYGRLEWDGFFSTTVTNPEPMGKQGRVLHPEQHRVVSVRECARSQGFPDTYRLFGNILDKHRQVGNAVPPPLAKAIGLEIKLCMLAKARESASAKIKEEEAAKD

Row | Compound | pIC50 [1] | pIC50 [2]
1 | COc1cc2c(N3CCC(C(C)(C)N)CC3)cc(-c3ccc(C)o3)nc2cc1OCCCN1CCCC1 [Compound 2-07] | 6.00 to 6.30 | 5.00 to 6.00
2 | COc1cc2c(N(C)C3CC4(CCN(C(C)C)CC4)C3)cc(-c3ccc(C)o3)nc2cc1OC1CC2(C1)CN(C)C2 (stereo not drawn) [Compound 1-14] | < 5.00 | 5.00 to 6.00
3 | COc1cc2c(N(C)C)cc(-c3ccc(C)[nH]3)nc2cc1OCCCN1CCCC1 [Compound 1-11] | 6.30 to 7.00 | 5.00 to 6.00
4 | COc1cc2c(OC3CCN(C)CC3)cc(-c3ccc(C)o3)nc2cc1OC1CC2(C1)CN(C)C2 [Compound 3-06, 6-methoxy-7-[(2-methyl-2-azaspiro[3.3]heptan-6-yl)oxy]-2-(5-methyl-2-furyl)-4-[(1-methyl-4-piperidyl)oxy]quinoline] | < 5.00 | 5.00 to 6.00
5 | COc1cc2c(N(C)C3CC4(CCN(C(C)C)CC4)C3)cc(-c3ccc(C)o3)nc2cc1OCCCN1CCCC1 [Compound 1-09] | 6.00 to 6.30 | 6.00 to 6.30
6 | CCc1ccc(-c2cc(N(C)CC3CCN(C)CC3)c3cc(OC)c(OCC4CCN(C)CC4)cc3n2)o1 [Compound 1-16] | < 5.00 | 5.00 to 6.00
7 | CNC1CCN(c2cc(-c3ccc(C)[nH]3)nc3cc(OCCCN4CCCC4)c(OC)cc23)CC1 [Compound 2-03] | 6.30 to 7.00 | 6.00 to 6.30
8 | COc1cc2c(N(C)CC3CCN(C)CC3)cc(-c3ccccc3)nc2cc1OCCCN1CCCC1 [Compound 1-22] | 5.00 to 6.00 | 6.00 to 6.30
9 | COc1cc2c(C=C3CCN(C)CC3)cc(-c3ccc(C)o3)nc2cc1OCCCN1CCCC1 [Compound 5-01, 6-methoxy-2-(5-methyl-2-furyl)-4-[(1-methyl-4-piperidylidene)methyl]-7-(3-pyrrolidin-1-ylpropoxy)quinoline] | < 5.00 | 5.00 to 6.00
10 | COc1cc2c(N(C)CC3CCN(C)CC3)cc(C3CCCCC3)nc2cc1OCCCN1CCCC1 [Compound 1-21, 2-cyclohexyl-6-methoxy-N-methyl-N-[(1-methyl-4-piperidyl)methyl]-7-(3-pyrrolidin-1-ylpropoxy)quinolin-4-amine] | 6.30 to 7.00 | 5.00 to 6.00
11 | COc1cc2c(OCC3CCN(C)CC3)cc(-c3ccc(C)o3)nc2cc1OCCCN1CCCC1 [Compound 3-02] | 5.00 to 6.00 | 6.00 to 6.30
12 | COc1cc2c(N3CCC(N(C)C)CC3)cc(-c3ccc(C)[nH]3)nc2cc1OCCCN1CCCC1 [Compound 2-05, 1-[6-methoxy-2-(5-methyl-1H-pyrrol-2-yl)-7-(3-pyrrolidin-1-ylpropoxy)-4-quinolyl]-N,N-dimethyl-piperidin-4-amine] | 6.30 to 7.00 | 6.30 to 7.00
13 | COc1cc2c(N(C)CC3CCNCC3)cc(-c3ccccc3)nc2cc1OCCCN1CCCC1 [Compound 1-23, 6-methoxy-N-methyl-2-phenyl-N-(4-piperidylmethyl)-7-(3-pyrrolidin-1-ylpropoxy)quinolin-4-amine] | 6.30 to 7.00 | 6.00 to 6.30
14 | COc1cc2c(N(C)C)cc(-c3ccc(C)o3)nc2cc1OCCCN1CCCC1 [Compound 1-12] | 5.00 to 6.00 | 5.00 to 6.00
15 | COc1cc2c(N(C)CC3CCN(C)CC3)cc(-c3cc(C)oc3C)nc2cc1OCCCN1CCCC1 [Compound 1-19] | 6.00 to 6.30 | 6.00 to 6.30
16 | COc1cc2c(N(C)C3CC4(CCN(C)CC4)C3)cc(-c3ccc(C)o3)nc2cc1OCC1CCN(C)CC1 [Compound 1-08, 6-methoxy-N-methyl-N-(7-methyl-7-azaspiro[3.5]nonan-2-yl)-2-(5-methyl-2-furyl)-7-[(1-methyl-4-piperidyl)methoxy]quinolin-4-amine] | < 5.00 | 5.00 to 6.00
17 | CNC1CCN(c2cc(-c3ccc4occc4c3)nc3cc(OCCCN4CCCC4)c(OC)cc23)CC1 [Compound 2-04] | < 5.00 | 5.00 to 6.00
18 | CCc1ccc(-c2cc(N(C)CC3CCN(C)CC3)c3cc(OC)c(OC4CC5(C4)CN(C)C5)cc3n2)o1 [Compound 1-10] | < 5.00 | 5.00 to 6.00
19 | CNCC1CCN(c2cc(-c3ccccc3)nc3cc(OCCCN4CCCC4)c(OC)cc23)CC1 [Compound 2-09] | 6.30 to 7.00 | 5.00 to 6.00
20 | CNC1CCN(c2cc(-c3ccc(C)o3)nc3cc(OCCCN4CCCC4)c(OC)cc23)CC1 [Compound 2-01, 1-[6-methoxy-2-(5-methyl-2-furyl)-7-(3-pyrrolidin-1-ylpropoxy)-4-quinolyl]-N-methyl-piperidin-4-amine] | 5.00 to 6.00 | 6.00 to 6.30
21 | COc1cc2c(N(C)C3CC4(CCN(C(C)C)CC4)C3)cc(-c3ccc(C)o3)nc2cc1OC1CC2(C1)CN(CC#N)C2 (stereo not drawn) [Compound 1-15] | < 5.00 | 5.00 to 6.00
22 | COc1cc2c(N(C)C3CCN(C)CC3)cc(-c3cc(C)oc3C)nc2cc1OCCCN1CCCC1 [Compound 1-05] | 5.00 to 6.00 | 5.00 to 6.00
23 | COc1cc2c(OCC3CCN(C)CC3)cc(-c3ccc(C)[nH]3)nc2cc1OCCCN1CCCC1 [Compound 3-03] | 6.30 to 7.00 | 6.00 to 6.30
24 | COc1cc2c(C3CCN(C)CC3)cc(-c3ccc(C)o3)nc2cc1OCCCN1CCCC1 [Compound 4-02, 6-methoxy-2-(5-methyl-2-furyl)-4-(1-methyl-4-piperidyl)-7-(3-pyrrolidin-1-ylpropoxy)quinoline] | 5.00 to 6.00 | 5.00 to 6.00
25 | COc1cc2c(N(C)C3CCN(C)CC3)cc(-c3ccc(C)[nH]3)nc2cc1OCCCN1CCCC1 [Compound 1-07] | > 7.00 | 6.00 to 6.30
26 | COc1cc2c(N(C)CC3CCN(C)CC3)cc(-c3ccc(C)o3)nc2cc1OCCCN1CCC(F)C1 (stereo not drawn) [Compound 1-20] | < 5.00 | 5.00 to 6.00
27 | CNCC1CCN(c2cc(C3CCCCC3)nc3cc(OCCCN4CCCC4)c(OC)cc23)CC1 [Compound 2-08, 1-[1-[2-cyclohexyl-6-methoxy-7-(3-pyrrolidin-1-ylpropoxy)-4-quinolyl]-4-piperidyl]-N-methyl-methanamine] | > 7.00 | 5.00 to 6.00
28 | COc1cc2c(N(C)C3CCC4(CC3)CN(C)C4)cc(-c3ccc(C)o3)nc2cc1OCCCN1CCCC1 [Compound 1-18] | 5.00 to 6.00 | 5.00 to 6.00
29 | COc1cc2c(N3CCC(CO)CC3)cc(-c3ccc(C)o3)nc2cc1OCCCN1CCCC1 [Compound 2-02] | 5.00 to 6.00 | 5.00 to 6.00
30 | COc1cc2c(N(C)CC3CCN(C)CC3)cc(-c3ccc(C)[nH]3)nc2cc1OCCCN1CCCC1 [Compound 1-06] | 6.30 to 7.00 | 6.30 to 7.00
